Laboratory results reported in ChEMBL document CHEMBL1201862, “PubChem BioAssay data set” (2004).
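Compound exposure: 48 hours, 5 concentrations, 96-well plates. GI50 marks 50% less growth.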 The source made the active and inactive calls. Rule as the data show it: active = GI50 up to about 1.1 µM and inactive = higher.

What was measured:
Experiment in all cases: NCI anticancer screen, dose series, 48 h
DLD-1 = tested on: DLD-1
SNB-19 = tested on: SNB-19
EKVX = tested on: EKVX
OVCAR-3 = tested on: OVCAR-3
SK-MEL-2 = tested on: SK-MEL-2
XF498 = tested on: XF498
NCI-H23 = tested on: NCI-H23
SK-OV-3 = tested on: SK-OV-3
SN12C = tested on: SN12C
RXF 393 = tested on: RXF 393
K562 = tested on: K562
UO-31 = tested on: UO-31
OVCAR-8 = tested on: OVCAR-8
SF-268 = tested on: SF-268
IGROV-1 = tested on: IGROV-1
A549 = tested on: A549
HL-60 = tested on: HL-60
HOP-92 = tested on: HOP-92

SMILES | GI50 (DLD-1) | GI50 (SNB-19) | GI50 (EKVX) | GI50 (OVCAR-3) | GI50 (SK-MEL-2) | GI50 (XF498) | GI50 (NCI-H23) | GI50 (SK-OV-3) | GI50 (SN12C) | GI50 (RXF 393) | GI50 (K562) | GI50 (UO-31) | GI50 (OVCAR-8) | GI50 (SF-268) | GI50 (IGROV-1) | GI50 (A549) | GI50 (HL-60) | GI50 (HOP-92)
Cc1cc(C)nc(NS(=O)(=O)c2ccc(NC(=O)c3cccc4c(N)c5ccccc5nc34)cc2)n1 | > 100 µM (inactive) | > 100 µM (inactive) | > 100 µM (inactive) | > 100 µM (inactive) | > 100 µM (inactive) | > 100 µM (inactive) | > 100 µM (inactive) | > 100 µM (inactive) | > 100 µM (inactive) | > 100 µM (inactive) | 63.8 µM (inactive) | > 100 µM (inactive) | 65.8 µM (inactive) | > 100 µM (inactive) | > 100 µM (inactive) | > 100 µM (inactive) | – | –
Cc1ccc([N+]2=NC(c3ccc([N+](=O)[O-])cc3)=NN(c3ccccc3)C2)cc1 | 25.7 µM (inactive) | 75.3 µM (inactive) | 43.7 µM (inactive) | > 100 µM (inactive) | – | > 100 µM (inactive) | 38.4 µM (inactive) | – | > 100 µM (inactive) | 51.9 µM (inactive) | 20.3 µM (inactive) | 86.7 µM (inactive) | 42.1 µM (inactive) | > 100 µM (inactive) | 94.4 µM (inactive) | > 100 µM (inactive) | 61.7 µM (inactive) | –
Cc1ccc(S(=O)(=O)CC(=O)CC(=O)C(=O)Nc2cccc(C(F)(F)F)c2)cc1 | > 100 µM (inactive) | > 100 µM (inactive) | > 100 µM (inactive) | > 100 µM (inactive) | > 100 µM (inactive) | > 100 µM (inactive) | > 100 µM (inactive) | > 100 µM (inactive) | > 100 µM (inactive) | – | > 100 µM (inactive) | > 100 µM (inactive) | – | > 100 µM (inactive) | > 100 µM (inactive) | > 100 µM (inactive) | 97.1 µM (inactive) | > 100 µM (inactive)
O=C(Nc1ccc(Nc2ccc(NC(=O)c3ccccc3)c3c2C(=O)c2ccccc2C3=O)c2c1C(=O)c1ccccc1C2=O)c1ccccc1 | > 100 µM (inactive) | > 100 µM (inactive) | > 100 µM (inactive) | > 100 µM (inactive) | > 100 µM (inactive) | – | – | > 100 µM (inactive) | > 100 µM (inactive) | > 100 µM (inactive) | > 100 µM (inactive) | > 100 µM (inactive) | > 100 µM (inactive) | > 100 µM (inactive) | > 100 µM (inactive) | > 100 µM (inactive) | > 100 µM (inactive) | –
Cc1c(/C=N/NC(=O)c2ccc(Cl)cc2)c(=O)n(-c2ccccc2)n1C | > 100 µM (inactive) | > 100 µM (inactive) | > 100 µM (inactive) | > 100 µM (inactive) | > 100 µM (inactive) | – | > 100 µM (inactive) | > 100 µM (inactive) | > 100 µM (inactive) | > 100 µM (inactive) | > 100 µM (inactive) | 95.5 µM (inactive) | > 100 µM (inactive) | > 100 µM (inactive) | > 100 µM (inactive) | > 100 µM (inactive) | > 100 µM (inactive) | > 100 µM (inactive)
CC(=O)O[C@]1(C)OC(=O)[C@@H](C)N1[N+](=O)[O-] | > 100 µM (inactive) | > 100 µM (inactive) | > 100 µM (inactive) | > 100 µM (inactive) | > 100 µM (inactive) | < 0.01 µM (active) | > 100 µM (inactive) | > 100 µM (inactive) | > 100 µM (inactive) | > 100 µM (inactive) | > 100 µM (inactive) | > 100 µM (inactive) | > 100 µM (inactive) | – | > 100 µM (inactive) | > 100 µM (inactive) | 32.1 µM (inactive) | –
CCOC1(COP(=O)(OCc2ccccc2)OCc2ccccc2)COC(COP(=O)(OCc2ccccc2)OCc2ccccc2)(OCC)CO1 (stereo not drawn) | > 100 µM (inactive) | > 100 µM (inactive) | 2.32 µM (inactive) | > 100 µM (inactive) | > 100 µM (inactive) | > 100 µM (inactive) | > 100 µM (inactive) | > 100 µM (inactive) | > 100 µM (inactive) | 4.33 µM (inactive) | > 100 µM (inactive) | – | 59 µM (inactive) | > 100 µM (inactive) | > 100 µM (inactive) | 9.02 µM (inactive) | 30.8 µM (inactive) | 2.99 µM (inactive)
CC(=O)CC(=O)CCCC(=O)Nc1ccc(Cl)cc1Cl | > 100 µM (inactive) | > 100 µM (inactive) | – | > 100 µM (inactive) | > 100 µM (inactive) | > 100 µM (inactive) | > 100 µM (inactive) | > 100 µM (inactive) | > 100 µM (inactive) | – | > 100 µM (inactive) | > 100 µM (inactive) | > 100 µM (inactive) | > 100 µM (inactive) | > 100 µM (inactive) | > 100 µM (inactive) | > 100 µM (inactive) | > 100 µM (inactive)
